How the values were obtained:
Test in all cases: relative viability (nuclei count vs DMSO), 5 days (fraction); higher = more cells survive
NCI-H727 = system: NCI-H727
Method in brief: (§1)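 Relative viability was taken as the ratio of nuclei in treated wells to nuclei in vehicle wells. Lung cancer cell lines in 1536-well plates received compounds by pin tool one day after seeding, either one drug alone or a fixed anchor-drug dose plus five library-drug doses (not always all listed) in √10 steps. Nuclei were counted on 4× images after 5 days of treatment, and values are medians of duplicate plates.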

NCI-H1944 = system: NCI-H1944
Method in brief: as §1

NCI-H3122 = system: NCI-H3122
Method in brief: as §1

COR-L 105 = system: COR-L 105
Method in brief: as §1

PC-14 = system: PC-14
Method in brief: as §1

NCI-H661 = system: NCI-H661
Method in brief: as §1

NCI-H358 = system: NCI-H358
Method in brief: as §1

SK-LU-1 = system: SK-LU-1
Method in brief: as §1

ChaGo-K-1 = system: ChaGo-K-1
Method in brief: as §1

HCC-827 = system: HCC-827
Method in brief: as §1

LCLC-103H = system: LCLC-103H
Method in brief: as §1

HCC-366 = system: HCC-366
Method in brief: as §1

HCC-44 = system: HCC-44
Method in brief: as §1

NCI-H2342 = system: NCI-H2342
Method in brief: as §1

HCC-78 = system: HCC-78
Method in brief: as §1

UMC-11 = system: UMC-11
Method in brief: as §1

EPLC-272H = system: EPLC-272H
Method in brief: as §1

HCC-15 = system: HCC-15
Method in brief: as §1

NCI-H1792 = system: NCI-H1792
Method in brief: as §1

NCI-H1437 = system: NCI-H1437
Method in brief: as §1

SK-MES-1 = system: SK-MES-1
Method in brief: as §1

NCI-H2085 = system: NCI-H2085
Method in brief: as §1

## COCC1(CO)C(=O)C2CCN1CC2 (stereo unspecified) [PRIMA-1MET] + Nc1ncn([C@H]2C[C@H](O)[C@@H](CO)O2)c(=O)n1 [Decitabine] (partner 2 µM)
NCI-H727; first compound 0.2 µM
  relative viability: 0.594
NCI-H727; first compound 0.6325 µM
  relative viability: 0.385
NCI-H727; first compound 6.325 µM
  relative viability: 0.849
NCI-H727; first compound 20 µM
  relative viability: 0.685
NCI-H1944; first compound 0.2 µM
  relative viability: 0.436
NCI-H1944; first compound 0.6325 µM
  relative viability: 0.35
NCI-H1944; first compound 2 µM
  relative viability: 0.408
NCI-H1944; first compound 6.325 µM
  relative viability: 0.431
NCI-H1944; first compound 20 µM
  relative viability: 0.446
NCI-H3122; first compound 0.2 µM
  relative viability: 0.336
NCI-H3122; first compound 0.6325 µM
  relative viability: 0.288
NCI-H3122; first compound 2 µM
  relative viability: 0.425
NCI-H3122; first compound 6.325 µM
  relative viability: 0.367
NCI-H3122; first compound 20 µM
  relative viability: 0.425
COR-L 105; first compound 0.2 µM
  relative viability: 0.695
COR-L 105; first compound 0.6325 µM
  relative viability: 0.619
COR-L 105; first compound 2 µM
  relative viability: 0.551
COR-L 105; first compound 6.325 µM
  relative viability: 0.597
COR-L 105; first compound 20 µM
  relative viability: 0.179
PC-14; first compound 0.2 µM
  relative viability: 0.18
PC-14; first compound 0.6325 µM
  relative viability: 0.109
PC-14; first compound 2 µM
  relative viability: 0.211
PC-14; first compound 6.325 µM
  relative viability: 0.21
PC-14; first compound 20 µM
  relative viability: 0.0433
NCI-H661; first compound 0.2 µM
  relative viability: 0.549
NCI-H661; first compound 0.6325 µM
  relative viability: 0.459
NCI-H661; first compound 2 µM
  relative viability: 0.517
NCI-H661; first compound 6.325 µM
  relative viability: 0.567
NCI-H661; first compound 20 µM
  relative viability: 0.497
NCI-H358; first compound 0.2 µM
  relative viability: 0.214
NCI-H358; first compound 0.6325 µM
  relative viability: 0.154
NCI-H358; first compound 2 µM
  relative viability: 0.215
NCI-H358; first compound 6.325 µM
  relative viability: 0.207
NCI-H358; first compound 20 µM
  relative viability: 0.183
SK-LU-1; first compound 0.2 µM
  relative viability: 0.523
SK-LU-1; first compound 0.6325 µM
  relative viability: 0.513
SK-LU-1; first compound 2 µM
  relative viability: 0.503
SK-LU-1; first compound 6.325 µM
  relative viability: 0.707
SK-LU-1; first compound 20 µM
  relative viability: 0.593
ChaGo-K-1; first compound 0.2 µM
  relative viability: 0.514
ChaGo-K-1; first compound 0.6325 µM
  relative viability: 0.362
ChaGo-K-1; first compound 2 µM
  relative viability: 0.557
ChaGo-K-1; first compound 6.325 µM
  relative viability: 0.518
ChaGo-K-1; first compound 20 µM
  relative viability: 0.518
HCC-827; first compound 0.2 µM
  relative viability: 0.343
HCC-827; first compound 0.6325 µM
  relative viability: 0.157
HCC-827; first compound 2 µM
  relative viability: 0.302
HCC-827; first compound 6.325 µM
  relative viability: 0.384
HCC-827; first compound 20 µM
  relative viability: 0.305
LCLC-103H; first compound 0.2 µM
  relative viability: 0.757
LCLC-103H; first compound 0.6325 µM
  relative viability: 0.55
LCLC-103H; first compound 2 µM
  relative viability: 0.685
LCLC-103H; first compound 6.325 µM
  relative viability: 0.78
LCLC-103H; first compound 20 µM
  relative viability: 0.716
HCC-366; first compound 0.2 µM
  relative viability: 0.325
HCC-366; first compound 0.6325 µM
  relative viability: 0.12
HCC-366; first compound 2 µM
  relative viability: 0.294
HCC-366; first compound 6.325 µM
  relative viability: 0.423
HCC-366; first compound 20 µM
  relative viability: 0.0554
HCC-44; first compound 0.2 µM
  relative viability: 1.04
HCC-44; first compound 0.6325 µM
  relative viability: 0.595
HCC-44; first compound 2 µM
  relative viability: 0.998
HCC-44; first compound 6.325 µM
  relative viability: 0.942
HCC-44; first compound 20 µM
  relative viability: 0.93
NCI-H2342; first compound 0.2 µM
  relative viability: 0.671
NCI-H2342; first compound 0.6325 µM
  relative viability: 0.681
NCI-H2342; first compound 6.325 µM
  relative viability: 0.658
NCI-H2342; first compound 20 µM
  relative viability: 0.684
HCC-78; first compound 0.2 µM
  relative viability: 0.643
HCC-78; first compound 0.6325 µM
  relative viability: 0.598
HCC-78; first compound 2 µM
  relative viability: 0.553
HCC-78; first compound 6.325 µM
  relative viability: 0.697
HCC-78; first compound 20 µM
  relative viability: 0.377
UMC-11; first compound 0.2 µM
  relative viability: 0.675
UMC-11; first compound 0.6325 µM
  relative viability: 0.477
UMC-11; first compound 2 µM
  relative viability: 0.399
UMC-11; first compound 6.325 µM
  relative viability: 0.668
UMC-11; first compound 20 µM
  relative viability: 0.46
EPLC-272H; first compound 0.2 µM
  relative viability: 0.353
EPLC-272H; first compound 0.6325 µM
  relative viability: 0.306
EPLC-272H; first compound 2 µM
  relative viability: 0.323
EPLC-272H; first compound 6.325 µM
  relative viability: 0.392
EPLC-272H; first compound 20 µM
  relative viability: 0.272
HCC-15; first compound 0.2 µM
  relative viability: 0.663
HCC-15; first compound 0.6325 µM
  relative viability: 0.373
HCC-15; first compound 2 µM
  relative viability: 0.647
HCC-15; first compound 6.325 µM
  relative viability: 0.585
HCC-15; first compound 20 µM
  relative viability: 0.563
NCI-H1792; first compound 0.2 µM
  relative viability: 0.523
NCI-H1792; first compound 6.325 µM
  relative viability: 0.515
NCI-H1792; first compound 20 µM
  relative viability: 0.434
NCI-H1437; first compound 0.2 µM
  relative viability: 0.607
NCI-H1437; first compound 0.6325 µM
  relative viability: 0.37
NCI-H1437; first compound 2 µM
  relative viability: 0.599
NCI-H1437; first compound 6.325 µM
  relative viability: 0.59
NCI-H1437; first compound 20 µM
  relative viability: 0.552
SK-MES-1; first compound 0.2 µM
  relative viability: 0.381
SK-MES-1; first compound 0.6325 µM
  relative viability: 0.32
SK-MES-1; first compound 2 µM
  relative viability: 0.376
SK-MES-1; first compound 6.325 µM
  relative viability: 0.339
SK-MES-1; first compound 20 µM
  relative viability: 0.337
NCI-H2085; first compound 0.2 µM
  relative viability: 0.59
NCI-H2085; first compound 0.6325 µM
  relative viability: 0.459
NCI-H2085; first compound 2 µM
  relative viability: 0.526
NCI-H2085; first compound 6.325 µM
  relative viability: 0.526
NCI-H2085; first compound 20 µM
  relative viability: 0.198
